The source of these data is patent publication US9359338B2, “Cyclopropanecarboxamido-substitute aromatic compounds as anti-tumor agents” (Crown Bioscience Inc. (Taiwan), priority 2012, dated 2016).

The target of one assay is KDR kinase (790-1356 AA) (Homo sapiens (Human), UniProt P35968). In words: Inhibitory activity at KDR kinase (Lance Ultra Ulight-TK assay). It is filed as biochemical. The procedure: Inhibitory Activity of Compounds at KDR Kinase
• [Experimental method]: Use Lance@Ultra Ulight™-TK assay kit from PerKinElmer to evaluate the inhibitory activity of compounds at KDR kinase. • [Instrument]: PerKinElmer's ENVISION plate reader • [Materials]: Optiplate-384 well plate (PerKinElmer), kinase buffer (50 mM Hepes pH7.5, 0.25 mM EGTA, 2 mM DTT, 0.01% Tween 20, 10 mM Mg^2+, 0.5 mM Mn^2+), KDR kinase (790-1356 AA, Crown Bioscience), KDR kinase substrate (PerKinElmer catalogue # TRF0127-M), Lance@Eu-W1024-anti-phosphotyrosine (PT66) (PerKinElmer, catalogue #AD0068), ATP (Invitrogen), DMSO (Sigma, catalogue #34869), purified water (Millipore, type: Milli-Q). • [Study conditions]: Mix KDR (final concentration: 20 nM) and compound (final DMSO: 0.5%), pre-incubate for 20 min at 30° C.; then add ATP (final concentration: 90 μM) and the substrate (final concentration […]). React for 2 hrs at 30° C. After the reaction, add antibody and reaction for 60 min at 30° C. Read the plate (615 nm, 665 nm), calculate the ratio of the value at 665 nm vs 615 nm and analyze the data. • [Samples]: Compounds in the examples and Sorafenib (positive control) • [Data Analysis]: Use CBIS data analysis software to calculate IC50 values

A further assay concerns PLC-PRF-5 cells. In words: Inhibition of proliferation of PLC-PRF-5 cells (ATPlite). Conditions: Homo sapiens, PLC-PRF-5, PLC-PRF-5 cells; read-out: PLC-PRF-5 cell proliferation IC50. The format is cell-based. The text has this: Inhibitory Activity of Compounds to the Proliferation of PLC-PRF-5 Cells
• [experimental Method]: Use PerKinElmer's ATPlite™ Luminescence ATP Detection Assay System to evaluate the inhibitory activity of compounds to the proliferation of PLC-PRF-5 cells. • [Instruments]: ENVISION plate reader (PerKinElmer) and centrifuge (Thermo Scientific, Sorvall ST16R) • [material]: PLC-PRF-5 cells (ATCC), 96-well plate (Nunc, #165305), DMEM medium (Gibco, #11965-092), PBS (Invitrogen, #10010023), fetal bovine serum (Gibco, #16000044), DMSO (Sigma, #D2650), ATPlite™ Luminescence ATP Detection Assay System (PerkinElmer, #6016949), purified water (Millipore, type: Milli-Q). • [Protocol]: Grow PLC-PRF-5 cells in DMEM supplemented with 10% FBS. When the cells reach 80% confluency, collect cells by trypsinization and centrifugation at 800 rpm for 3 min. Resuspend cells with appropriate volume of medium and count cell numbers. Adjust cell concentration to 50000 cells/mL, and split 160 μL cell suspension per well into 96-well plates. Transfer the plates into cell culture incubator (37° C., 5% CO2) and incubate cells for 2 hrs. Prepare compound serial dilutions in culture medium with total 8 compound concentrations at 3-fold serial dilutions (the final top concentration starts from 30 μM). Dispense 40 μL of each test compound dilution into corresponding wells with DMSO at 0.3% final concentration. Continue incubating cells in cell culture incubator for additional 96 hrs at 37° C., 5% CO2. Discard culture medium, and wash cells once with PBS. Add 50 μL cell lysis buffer per well and shake plates for 5 min at room temperature to ensure complete lysis of cells. Then add 50 μL of substrate solution and shake plates for 1 min at room temperature. Allow the plates to incubate at room temperature for 5 min, followed by recording the luminescence signals using Envision, and subsequent data analysis. • [Samples]: Compounds in the examples and Sorafenib (positive control) • [Data analysis]: Use CBIS data analysis software to calculate IC50 values
A general note: Cellular ATP, detected with luciferase, serves as a proxy for viable cell number.

In a further assay the test system is pERK in MDA-MB-231 cells. In words: Inhibitory activity at pERK (In Cell Western, MDA-MB-231 cells). The format is cell-based. Conditions: Homo sapiens, MDA-MB-231, MDA-MB-231 cells; read-out: MDA-MB-231 pERK IC50. The procedure:
Inhibitory Activity of Compounds at pERK
When the cells reach 80% confluency, collect cells by trypsinization and centrifugation at 800 rpm for 3 minutes. Resuspend cells with appropriate volume of medium and count cell numbers. Adjust cell concentration to 70000 cells/mL, and split 100 μL cell suspension per well into 96-well plates. Transfer the plates into cell culture incubator (37° C., 5% CO2) and incubate cells overnight. Discard the medium, wash with PBS once, Prepare compound serial dilutions in culture medium with total 8 compound concentrations at 3-fold serial dilutions (the final top concentration starts from 30 μM). Dispense 75 μL DMEM medium (with 0.1% BSA) and 25 μL of each test compound dilution into corresponding wells with DMSO at 0.3% final concentration. Continue incubating cells in cell culture incubator for additional 2 hrs at 37° C., 5% CO2. Discard culture medium, and wash cells once with PBS. Add 100 μL of 4% formaldehyde solution to each well and fix for 20 min. Discard the formaldehyde, then add 100 μL ice-cold 100% methanol at 4° C. for 20 min. Discard methanol, wash with PBS three times. Add to each well 100 μL of 2% BSA solution, seal for 30 min at room temperature. Discard the BSA solution, add to each well 50 μL of the 1st antibody solution (prepared with 2% BSA, 1:250 dilution), incubate at 4° C. overnight. Discard the 1^St antibody solution, wash with PBS four times. Add to each well […] the 2nd antibody solution (prepared with 1% BSA, 1:1000 dilution), incubate at room temperature for 1 hr. Discard the 2nd antibody solution, wash with PBS four times, add to each well 100 μL PI solution (1.5 μM), incubate at room temperature for 30 min. Use Acumen (TPP) to measure the fluorescence. • [Samples]: Compounds in the examples and sorafenib (positive control) • [Data Analysis]: Use CBIS data analysis software to calculate IC50 values

Sequence of KDR kinase (790-1356 AA) (P35968 790-1356): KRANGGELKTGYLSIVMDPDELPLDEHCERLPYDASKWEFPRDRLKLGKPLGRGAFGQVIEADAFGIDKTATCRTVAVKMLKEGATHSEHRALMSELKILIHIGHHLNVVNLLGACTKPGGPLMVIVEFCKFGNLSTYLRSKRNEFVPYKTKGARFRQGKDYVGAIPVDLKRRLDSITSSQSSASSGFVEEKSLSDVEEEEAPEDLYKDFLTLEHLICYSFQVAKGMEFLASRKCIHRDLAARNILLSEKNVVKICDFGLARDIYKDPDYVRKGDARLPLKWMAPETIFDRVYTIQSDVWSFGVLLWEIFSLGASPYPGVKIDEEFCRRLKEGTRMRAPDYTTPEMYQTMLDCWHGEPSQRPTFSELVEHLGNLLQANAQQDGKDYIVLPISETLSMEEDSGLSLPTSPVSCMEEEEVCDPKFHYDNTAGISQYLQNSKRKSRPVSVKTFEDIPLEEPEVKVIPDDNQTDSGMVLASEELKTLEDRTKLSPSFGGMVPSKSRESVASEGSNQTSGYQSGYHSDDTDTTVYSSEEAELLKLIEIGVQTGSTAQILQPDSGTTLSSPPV

In the case of `CCOC(=O)C(C)(C)CNc1cc(NC(=O)Nc2ccc(Oc3ccnc(NC(=O)C4CC4)c3)c(F)c2)cc(C(F)(F)F)c1` [Exe. 050], the values for the IC50 against KDR kinase (790-1356 AA), with PLC-PRF-5 cells and in the assay on pERK in MDA-MB-231 cells were 12.8 nM, 2230 nM and 110 nM, respectively.
As for `O=C(Nc1cc(N2CCN(CCF)CC2)cc(C(F)(F)F)c1)Nc1ccc(Oc2ccnc(NC(=O)C3CC3)c2)c(F)c1` [Exe. 053], the IC50 against KDR kinase (790-1356 AA) was 13 nM; with PLC-PRF-5 cells, 686 nM; in the assay with pERK in MDA-MB-231 cells, 65.1 nM.
In the case of `CC(C)N1CCN(c2cc(NC(=O)Nc3ccc(Oc4ccnc(NC(=O)C5CC5)c4)c(F)c3)cc(C(F)(F)F)c2)CC1` [Exe. 054], the values for the IC50 at KDR kinase (790-1356 AA), in the assay with PLC-PRF-5 cells and with pERK in MDA-MB-231 cells were 15.3 nM, 340 nM and 97.6 nM, respectively.
In the case of `CCN1CCN(c2cc(NC(=O)Nc3ccc(Oc4ccnc(NC(=O)C5CC5)c4)c(F)c3)cc(C(F)(F)F)c2)CC1` [Exe. 055], the IC50 worked out at 14.5 nM against KDR kinase (790-1356 AA), 420 nM with PLC-PRF-5 cells and 284 nM in the assay on pERK in MDA-MB-231 cells.
As to `O=C(Nc1cccc(C2CC2)c1)Nc1ccc(Oc2ccnc(NC(=O)C3CC3)c2)c(F)c1` [Exe. 057], the IC50 stood at 12 nM against KDR kinase (790-1356 AA), 250 nM in the assay with PLC-PRF-5 cells and 85 nM in the assay on pERK in MDA-MB-231 cells.
For `O=C(Nc1cc(C2CCN(C3CC3)CC2)cc(C(F)(F)F)c1)Nc1ccc(Oc2ccnc(NC(=O)C3CC3)c2)c(F)c1` [Exe. 060], in that order: 34.3 nM, 1510 nM and 324 nM.
For `CN1C(=O)C2(CC2)c2cc(NC(=O)Nc3ccc(Oc4ccnc(NC(=O)C5CC5)c4)cc3)ccc21` [Exe. 066], in that order: 8 nM, 2500 nM and 16 nM.
As to `CC(N)c1cc(NC(=O)Nc2ccc(Oc3ccnc(NC(=O)C4CC4)c3)c(F)c2)cc(C(F)(F)F)c1` (stereo not drawn) [Exe. 068], the IC50 against KDR kinase (790-1356 AA) was 15.7 nM; with PLC-PRF-5 cells, 325 nM; in the assay with pERK in MDA-MB-231 cells it was 8.4 nM.
For `O=C(Nc1cc(NC2CCNCC2)cc(C(F)(F)F)c1)Nc1ccc(Oc2ccnc(NC(=O)C3CC3)c2)c(F)c1` [Exe. 069], in that order: 17.1 nM, 10500 nM and 337 nM.
For `Cc1cc(Oc2cc(NC(=O)C3CC3)ncn2)ccc1NC(=O)Nc1ccc(F)c(C(C)(F)F)c1` [Exe. 071], in that order: 13.3 nM, 20500 nM and 100 nM.
For `Cc1cc(Oc2cc(NC(=O)C3CC3)ncn2)ccc1NC(=O)Nc1ccc(C)c(C(F)(F)F)c1` [Exe. 072], in that order: 8.9 nM, 7000 nM and 12 nM.
On to `Cc1cc(Oc2cc(NC(=O)C3CC3)ncn2)ccc1NC(=O)Nc1cc(Cl)cc(C(F)(F)F)c1` [Exe. 075], for which the IC50 amounted to 13.1 nM on KDR kinase (790-1356 AA), 20000 nM in the assay with PLC-PRF-5 cells and 420 nM with pERK in MDA-MB-231 cells.
For `Cc1cc(Oc2cc(NC(=O)C3CC3)ncn2)ccc1NC(=O)Nc1cc(NC2CCN(C)CC2)cc(C(F)(F)F)c1` [Exe. 076], in that order: 12.5 nM, 5600 nM and 83 nM.
